From patent publication US20250257060A1, “OXADIAZOLE COMPOUND, PHARMACEUTICAL COMPOSITION COMPRISING SAME, AND USE THEREOF” (SUZHOU GENHOUSE BIO CO., LTD., priority 2022, published 2025)
Like-named read-outs stand apart in the source and are kept apart here.

Columns and labels:
[1] = molecular target: HDAC6 (Homo sapiens (Human), UniProt Q9UBN7); test: HDAC6 enzymatic activity assay; type: biochemical
Method in brief: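 Recombinant HDAC6 with compound and Ac-GAK(Ac)-AMC substrate ([…]), 37° C. for 30 min, then developed with trypsin plus TSA for 15 min at room temperature. IC50 from curve fitting.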

[2] = molecular target: HDAC1 (Homo sapiens (Human), UniProt Q13547); test: HDAC subtype enzymatic activity assay, HDAC1; type: biochemical; conditions: read-out: HADC1 Inhibition rate (%)
Sequence of HDAC1 (Q13547 whole entry): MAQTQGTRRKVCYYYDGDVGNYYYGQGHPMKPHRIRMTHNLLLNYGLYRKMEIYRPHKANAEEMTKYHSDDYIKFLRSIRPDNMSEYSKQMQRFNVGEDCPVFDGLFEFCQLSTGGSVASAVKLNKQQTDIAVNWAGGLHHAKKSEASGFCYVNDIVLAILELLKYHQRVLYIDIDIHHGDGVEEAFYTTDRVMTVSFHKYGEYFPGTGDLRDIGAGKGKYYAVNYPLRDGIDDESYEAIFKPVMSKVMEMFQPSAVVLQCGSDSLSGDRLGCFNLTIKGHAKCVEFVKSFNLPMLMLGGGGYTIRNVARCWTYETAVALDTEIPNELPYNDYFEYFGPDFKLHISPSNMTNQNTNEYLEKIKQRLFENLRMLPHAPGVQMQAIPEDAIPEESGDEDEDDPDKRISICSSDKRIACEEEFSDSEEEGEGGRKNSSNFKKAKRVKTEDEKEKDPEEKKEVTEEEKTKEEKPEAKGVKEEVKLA
Description: The inhibitory activity of the compounds of the present application on HDAC1-5 and 7-11 was evaluated by an enzymatic activity assay.
1 M Trypsin and 10 M TSA were added, and the plate was incubated at room temperature for 15 min. […] IC50 was obtained by fitting using GraphPadPrism 7.0 software.

[3] = Phase I metabolic stability in rat liver microsomes (RLMs); type: in vitro ADME, Sprague-Dawley rats; conditions: RLM; for Remaining rate (NCF = 60 min): buffer instead of NADPH regeneration system; for Remaining rate (T = 60 min): with NADPH; for CLint scaled at 1 µM / half-life at 1 M / microsomal CLint at 1 µM: Sprague-Dawley, rat, liver microsomes, pH 7.4; for microsomal CLint at 1 µM: read-out: CLint (mic)
Description: Phase I metabolic stability of the test compounds in liver microsomes of CD-1 mice (MLMs), Sprague-Dawley rats (RLMs), beagle dogs (DLMs), cynomolgus monkeys (CLMs), and humans (HLMs) was evaluated.
The animal and human liver microsomes used in the test system were purchased from Xenotech, Corning, or other qualified suppliers and stored in a freezer at a temperature below −60° C. prior to use.
The test samples and control compounds were separately incubated with animal and human liver microsomes at 37±1° C. for a period of incubation time up to 60 min. The samples were removed at the indicated time points, and the reaction was stopped with acetonitrile or other organic solvents containing an internal standard. After centrifugation, the resulting supernatants were assayed by liquid chromatography-tandem mass spectrometry (LC-MS/MS).
73.21 g of dipotassium hydrogenphosphate trihydrate and 10.78 g of potassium dihydrogenphosphate were dissolved in 4000 mL of ultrapure water. The solution was adjusted to pH 7.40±0.10 with 10% phosphoric acid or 1 M potassium hydroxide to make a final concentration of 100 mM.
The test sample powder was prepared into a stock solution at a certain concentration with DMSO or other organic solvents, which was then further diluted with a proper organic solvent.
Microsomes of each species were diluted into a 2× working solution with a 100 mM potassium phosphate buffer. The final concentration of the microsomes in the reaction system was 0.5 mg/mL.
An appropriate amount of nicotinamide adenine dinucleotide phosphate (NADP) and isocitric acid (ISO) powder was weighed out, dissolved in a magnesium chloride solution, and shaken and mixed well. An appropriate amount of isocitrate dehydrogenase (IDH) was added, and the mixture was mixed well by gently turning upside down. The final concentrations in the reaction system were: 1 mM NADP, 1 mM magnesium chloride, 6 mM ISO, and 1 unit/mL IDH.
Incubation was performed in a 96-well plate. Eight incubation plates were prepared and designated T0, T5, T15, T30, T45, T60, Blank60, and NCF60, respectively. The first 6 plates corresponded to reaction time points of 0, 5, 15, 30, 45, and 60 min, respectively. No test sample or control compound was added to the Blank60 plate, and samples were taken after 60 min of incubation. In the NCF60 plate, incubation was performed for 60 min using the potassium phosphate buffer instead of the NADPH regeneration system solution. Three replicates were made for samples in all conditions.
The microsomes and the test sample or control compound were mixed, and then the incubation plates Blank60, T5, T15, T30, T45, and T60 except for TO and NCF60 were placed in a 37° C. water bath for pre-incubation for about 10 min. In the incubation plate TO, a stop solution was first added, followed by addition of the NADPH regeneration system working solution, and 98 μL of the potassium phosphate buffer was added to each sample well of the incubation plate NCF60 to initiate the reaction. After the pre-incubations of the incubation plates Blank60, T5, T15, T30, T45, and T60 were completed, 98 μL of the NADPH regeneration system working solution was added to each sample well to initiate the reaction. The reaction temperature was 37±1° C., the final volume of the reaction was 200 μL, and the reaction system included 0.5 mg/mL microsomes, […], 1 mM NADP, 6 mM ISO, and 1 unit/mL IDH.
At 5 min, 15 min, 30 min, 45 min, and 60 min, a cold stop solution containing an internal standard was added to the reaction plate to stop the reaction.
All the reaction plates after the reaction was stopped were shaken well and centrifuged at 3220×g at 4° C. for 20 min. After the supernatant was diluted according to a certain proportion, LC-MS/MS analysis was performed.
Sample analysis was performed by the liquid chromatography-tandem mass spectrometry (LC-MS/MS) method without standard curves and quality control samples. […]

[4] = Pharmacokinetic test in mice (IV and PO); type: in vivo, BALB/c mice; conditions: for Cmax / AUC(0-inf) / AUC(0-t) / MRT inf / Vd / Tmax: BALB/c, mouse, plasma; for MRT inf: read-out: MRT(0-∞); for Vd: read-out: Vz
Method in brief: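 BALB/c mice (3 per group) given single IV or intragastric doses; blood sampled orbitally at 0.25–24 h into K2-EDTA tubes for plasma. Concentrations measured by LC-MS/MS; parameters from non-compartmental analysis with linear-log trapezoidal method.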

[5] = po, 10 mg/kg, read-out: C0/Cmax
[6] = po, 100 mg/kg, read-out: C0/Cmax
[7] = mice, PO 30 mg/kg (Cmax), read-out: C0/Cmax

Sequence of HDAC6 (Q9UBN7 whole entry): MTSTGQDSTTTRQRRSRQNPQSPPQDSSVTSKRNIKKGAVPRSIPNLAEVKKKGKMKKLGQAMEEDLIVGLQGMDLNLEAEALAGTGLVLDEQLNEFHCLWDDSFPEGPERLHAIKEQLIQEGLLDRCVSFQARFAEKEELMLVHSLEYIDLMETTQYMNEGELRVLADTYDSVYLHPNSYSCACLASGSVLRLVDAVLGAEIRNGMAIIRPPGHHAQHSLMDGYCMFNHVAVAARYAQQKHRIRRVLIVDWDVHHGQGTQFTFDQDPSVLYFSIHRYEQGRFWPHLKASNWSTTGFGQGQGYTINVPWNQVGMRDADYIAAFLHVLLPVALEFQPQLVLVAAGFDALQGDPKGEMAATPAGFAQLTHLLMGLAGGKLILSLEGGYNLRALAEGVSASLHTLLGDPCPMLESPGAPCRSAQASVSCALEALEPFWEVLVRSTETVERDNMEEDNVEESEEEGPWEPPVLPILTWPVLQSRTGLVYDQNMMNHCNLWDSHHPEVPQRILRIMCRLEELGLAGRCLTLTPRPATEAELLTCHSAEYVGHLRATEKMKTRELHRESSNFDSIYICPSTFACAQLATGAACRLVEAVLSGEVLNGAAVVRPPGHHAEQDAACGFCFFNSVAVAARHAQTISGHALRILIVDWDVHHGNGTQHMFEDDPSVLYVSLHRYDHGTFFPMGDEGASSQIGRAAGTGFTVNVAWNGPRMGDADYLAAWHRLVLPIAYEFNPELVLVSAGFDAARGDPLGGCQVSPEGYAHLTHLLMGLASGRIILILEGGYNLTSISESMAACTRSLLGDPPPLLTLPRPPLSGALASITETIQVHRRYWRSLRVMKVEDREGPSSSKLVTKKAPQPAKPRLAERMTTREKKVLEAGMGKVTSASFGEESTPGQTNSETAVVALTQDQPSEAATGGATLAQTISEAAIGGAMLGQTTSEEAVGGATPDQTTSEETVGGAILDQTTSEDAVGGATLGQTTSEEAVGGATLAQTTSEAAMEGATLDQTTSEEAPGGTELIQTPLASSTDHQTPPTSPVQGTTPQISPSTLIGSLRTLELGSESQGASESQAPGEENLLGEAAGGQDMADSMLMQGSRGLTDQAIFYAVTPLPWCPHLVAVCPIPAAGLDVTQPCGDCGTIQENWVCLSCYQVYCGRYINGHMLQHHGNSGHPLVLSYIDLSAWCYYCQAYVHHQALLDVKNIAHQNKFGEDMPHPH

SMILES	IC50 [1]	Remaining rate (NCF = 60 min) [3]	Remaining rate (T = 60 min) [3]	CLint scaled at 1 µM [3]	half-life at 1 M [3]	microsomal CLint at 1 µM [3]	Cmax [4, 5]	AUC(0-inf) ([4]; mice, IV 2 mg/kg)	AUC(0-t) ([4]; mice, IV 2 mg/kg)	Cmax ([4]; mice, IV 2 mg/kg (C0))	MRT inf ([4]; mice, IV 2 mg/kg)	Vd ([4]; mice, IV 2 mg/kg)	AUC(0-inf) ([4]; mice, PO 10 mg/kg)	AUC(0-t) ([4]; mice, PO 10 mg/kg)	Tmax ([4]; mice, PO 10 mg/kg)	MRT inf ([4]; mice, PO 10 mg/kg)	CLz ([4]; mice, IV 2 mg/kg)	t½z ([4]; mice, IV 2 mg/kg)	F ([4]; mice, PO 10 mg/kg)	t½z ([4]; mice, PO 10 mg/kg)	other results
CC(F)(F)C(=O)N[C@@H]1CCCC[C@H]1N1Cc2ccc(-c3nnc(C(F)F)o3)cc2S1(=O)=O [Compound 1]	59 nM	100.2%	68.9%	25.8 mL/min/kg	1.61 h	14.4 µL/min/mg	8.97 µM	9.88 µM·h	9.88 µM·h	4.52 µM	2.19 h	0.684 L/kg	45.2 µM·h	45.2 µM·h	1 h	3.35 h	7.1 mL/min/kg	1.062 h	91.46%	0.919 h	inhibition at 1 µM ([2]; 1 μM): 8.57%; inhibition at 10 µM ([2]; 10 μM): -3.17%; Cmax [4, 6]: 30.5 µM; AUC(0-inf) ([4]; mice, PO 30 mg/kg): 73.1 µM·h; AUC(0-t) ([4]; mice, PO 30 mg/kg): 73.1 µM·h; Tmax ([4]; mice, PO 30 mg/kg): 0.417 h; Cmax [4, 7]: 17.5 µM; MRT inf ([4]; mice, PO 30 mg/kg): 3.65 h; AUC(0-inf) ([4]; mice, PO 100 mg/kg): 171 µM·h; AUC(0-t) ([4]; mice, PO 100 mg/kg): 171 µM·h; Tmax ([4]; mice, PO 100 mg/kg): 1.5 h; MRT inf ([4]; mice, PO 100 mg/kg): 3.71 h; F ([4]; mice, PO 30 mg/kg): 49.31%; t½z ([4]; mice, PO 30 mg/kg): 0.918 h; F ([4]; mice, PO 100 mg/kg): 34.72%; t½z ([4]; mice, PO 100 mg/kg): 1.292 h
O=C(N[C@@H]1CCCC[C@H]1N1Cc2ccc(-c3nnc(C(F)F)o3)cc2S1(=O)=O)C(F)F [Compound 2]		93.0%	76.4%	< 17.3 mL/min/kg	> 2.42 h	< 9.6 µL/min/mg	13.9 µM	12.6 µM·h	12.6 µM·h	6.75 µM	2.35 h	0.55 L/kg	77.8 µM·h	77.7 µM·h	0.5 h	4.5 h	6 mL/min/kg	1.01 h	123.92%	1.62 h	inhibition at 1 µM [2]: -11.9%; inhibition at 10 µM [2]: -3.91%; Cmax [4, 6]: 87.9 µM; AUC(0-inf) ([4]; mice, PO 30 mg/kg): 182 µM·h; AUC(0-t) ([4]; mice, PO 30 mg/kg): 182 µM·h; Tmax ([4]; mice, PO 30 mg/kg): 0.67 h; Cmax [4, 7]: 35 µM; MRT inf ([4]; mice, PO 30 mg/kg): 3.66 h; AUC(0-inf) ([4]; mice, PO 100 mg/kg): 601 µM·h; AUC(0-t) ([4]; mice, PO 100 mg/kg): 601 µM·h; Tmax ([4]; mice, PO 100 mg/kg): 1.33 h; MRT inf ([4]; mice, PO 100 mg/kg): 4.33 h; F ([4]; mice, PO 30 mg/kg): 96.93%; t½z ([4]; mice, PO 30 mg/kg): 0.87 h; F ([4]; mice, PO 100 mg/kg): 95.71%; t½z ([4]; mice, PO 100 mg/kg): 0.81 h
O=C(N[C@H]1[C@H](N2Cc3ccc(-c4nnc(C(F)F)o4)cc3S2(=O)=O)CCCC1(F)F)C(F)F [Compound 61]	63 nM	88.24%	72.95%	19.4 mL/min/kg	2.14 h		12.6 µM	15.4 µM·h	12.8 µM·h	4.52 µM	4.38 h	1.18 L/kg	73.4 µM·h	57 µM·h	1 h	5.3 h	4.35 mL/min/kg	3.12 h	89.2%	3.551 h	
